# Source: US10125126B2, “N-cycloalkyl-N-[(heterocyclylphenyl)methylene]-(thio)carboxamide derivatives” (BAYER CROPSCIENCE AG, priority 2012, dated 2018)
# Assays:
# [1] = log P by HPLC on a reversed-phase column (C 18), EEC Directive 79/831 Annex V.A8; format: physicochemical; conditions: for logP: HPLC on reversed-phase column (C 18), 40° C., 0.1% aqueous formic acid and acetonitrile, linear gradient 10% to 90% acetonitrile
# Outline: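 Column at 40° C; mobile phases 0.1% aqueous formic acid and acetonitrile, linear gradient 10% to 90% acetonitrile. Calibrated with unbranched alkan-2-ones (3 to 16 carbons) of known log P; values from retention times by linear interpolation between two successive alkanones.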
# [2] = system: Blumeria graminis f.sp. hordei; test: In vivo preventive test on Blumeria graminis (barley); conditions: 500 ppm of active ingredient, evaluated 7 days after inoculation
# Procedure: (§1) In Vivo Preventive Test on Blumeria graminis (Barley) [table] To produce a suitable preparation of active compound, 1 part by weight of active compound or active compound combination is mixed with the stated amounts of solvent and emulsifier, and the concentrate is diluted with water to the desired concentration. To test for preventive activity, young plants are sprayed with the preparation of active compound or active compound combination at the stated rate of application. After the spray coating has been dried, the plants are dusted with spores of Blumeria graminis f.sp. hordei.
# Leptosphaeria nodorum = test: In vivo preventive test on Leptosphaeria nodorum (wheat); conditions: 500 ppm of active ingredient, evaluated 8 days after inoculation
# Procedure: as §1, with “Leptosphaeria nodorum Test (Wheat)” for “Blumeria graminis (Barley)”, “sprayed” for “dusted”, “a spore suspension” for “spores”, “Leptosphaeria nodorum. The plants remain for 48 hours in an incubation cabinet at approximately 20° C. and a relative atmospheric humidity of approximately 100%.” for “Blumeria graminis f.sp. hordei.”
# Pyrenophora teres = test: In vivo preventive test on Pyrenophora teres (barley); conditions: 500 ppm of active ingredient; barley plants; 14 days after contamination
# Outline: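 Barley ("Plaisant") grown at 22° C was sprayed at the 1-leaf stage (10 cm) with active ingredient in acetone/tween/DMSO/water, with solvent-only controls. After 24 h, leaves were inoculated with Pyrenophora teres spores (12 000 spores per mL) from 12-day cultures. % efficacy versus controls graded 14 days post-contamination.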
# Puccinia recondita = test: In vivo preventive test on Puccinia recondita (brown rust on wheat); conditions: 500 ppm of active ingredient; wheat plants; 12 days after contamination
# Outline: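 Wheat plants ("Scipion") at 1-leaf stage, grown at 22° C, were sprayed with compound, then inoculated 24 h later with Puccinia recondita spores (100 000 spores per mL). Efficacy (%) graded 12 days after inoculation relative to solvent-treated controls.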
# Septoria tritici = test: In vivo preventive test on Septoria tritici (wheat); conditions: 500 ppm of active ingredient; wheat plants; 24 days after contamination
# Outline: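 Scipion wheat grown at 22° C, sprayed at 1-leaf stage (10 cm); controls received acetone/tween/DMSO/water without active. Inoculated 24 h later with S. tritici spores (500 000/mL), held 72 h at 18° C, 100% RH, then 21 days at 90% RH. % efficacy vs controls scored 24 days post-inoculation.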
# Sphaerotheca fuliginea = test: In vivo preventive test on Sphaerotheca fuliginea (powdery mildew on cucurbits); conditions: 500 ppm of active ingredient, gherkin plants, 12 days after contamination
# Outline: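 Gherkin plants ("Vert petit de Paris") grown at 24 °C were sprayed at cotyledon stage Z11; controls received acetone/tween/DMSO/water without active. Inoculation 24 h later by spraying cotyledons with 100 000 spores/mL. Efficacy (%) graded 12 days post-contamination versus controls.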
# Uromyces appendiculatus = test: In vivo preventive test on Uromyces appendiculatus (bean rust); conditions: 500 ppm of active ingredient; bean plants; 11 days after contamination
# Outline: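 Saxa bean plants at 2-leaf stage, grown at 24° C., sprayed preventively with compound; 24 h later inoculated with U. appendiculatus spores (150 000 spores per mL). Percent efficacy graded 11 days after inoculation versus solvent-treated controls.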
# Venturia inaequalis = test: In vivo preventive test on Venturia inaequalis (apples); conditions: 100 ppm of active ingredient, evaluated 10 days after inoculation
# Procedure: In Vivo Preventive Test on Venturia inaequalis (apples) [table] To produce a suitable preparation of active compound, 1 part by weight of active compound is mixed with the stated amounts of solvent and emulsifier, and the concentrate is diluted with water to the desired concentration. To test for preventive activity, young plants are sprayed with the preparation of active compound at the stated rate of application. After the spray coating has dried on, the plants are inoculated with an aqueous conidia suspension of the causal agent of apple scab (Venturia inaequalis) and then remain for 1 day in an incubation cabinet at approximately 20° C. and a relative atmospheric humidity of 100%. The plants are then placed in a greenhouse at approximately 21° C. and a relative atmospheric humidity of approximately 90%.
# Alternaria brassicae = test: In vivo preventive test on Alternaria brassicae (leaf spot on radish); conditions: 500 ppm of active ingredient; radish plants; 6 days after contamination
# Procedure: In Vivo Preventive Test on Alternaria brassicae (Leaf Spot on Radish) […] Radish plants (“Pernod Clair” variety), sown in starter cups on a 50/50 peat soil pozzolana substrate and grown at 17° C., are treated at the cotyledon stage by spraying with the active ingredient prepared as described above. Plants, used as controls, are treated with the mixture of acetone/tween/DMSO/water not containing the active material. After 24 hours, the plants are contaminated by spraying the cotyledons with an aqueous suspension of Alternaria brassicae spores (50 000 spores per mL). The spores are collected from a 15-day-old culture. The contaminated radish plants are incubated at 20° C. and at 100% relative humidity. Grading (% of efficacy) is carried out 6 days after the contamination, in comparison with the control plants.
# Botrytis cinerea = test: In vivo preventive test on Botrytis cinerea (grey mould); conditions: 500 ppm of active ingredient; gherkin plants; 4 to 5 days after contamination
# Outline: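 Gherkin plants at cotyledon stage Z11 were sprayed with compound, then inoculated 24 h later with Botrytis cinerea spores (50 000 spores per mL in nutrient solution). Plants were kept at 17° C and 90% RH, and percent efficacy versus solvent-treated controls was graded 4 to 5 days after contamination.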
# Pyricularia oryzae = format: in vivo; conditions: 500 ppm of active ingredient; rice plants; 6 days after contamination
SMILES,chromatographic logP ([1]; logP),Efficacy [2] [%],Efficacy (Leptosphaeria nodorum) [%],Efficacy (Pyrenophora teres) [%],Efficacy (Puccinia recondita) [%],Efficacy (Septoria tritici) [%],"pest or weed control at 500 ppm (Sphaerotheca fuliginea; Podosphaera fuliginea, 288 h, read-out: Efficacy) [%]",Efficacy (Uromyces appendiculatus) [%],Efficacy (Venturia inaequalis) [%],logP [1],Efficacy (Alternaria brassicae) [%],Efficacy (Botrytis cinerea) [%],Efficacy (Pyricularia oryzae) [%],Efficacy (Sphaerotheca fuliginea) [%]
"Cn1nc(C(F)F)c(C(=O)N(Cc2cc(Cl)ccc2C2(C)CO2)C2CC2)c1F (centres unmarked) [I.4, N-[5-chloro-2-(2-methyloxiran-2-yl)benzyl]-N-cyclopropyl-3-(difluoromethyl)-5-fluoro-1-methyl-1H-pyrazole-4-carboxamide]",3.19,94,80,96,98,100,100,100,100,,,,,
Cc1csc(-c2ccc(C(C)C)c(CN(C(=O)c3c(C(F)F)nn(C)c3F)C3CC3)c2)c1 [I.106],,,,93,,80,,,,4.93,100,80,80,100
COc1ccsc1-c1ccc(F)cc1CN(C(=O)c1c(C(F)F)nn(C)c1F)C1CC1 [I.119],,,,71,100,90,,100,,3.63,,,70,100
CC(C)c1ccc(-c2coc3ccccc23)cc1CN(C(=O)c1c(C(F)F)nn(C)c1F)C1CC1 [I.132],,,,88,83,100,,77,,4.90,97,99,80,100
